Laboratory results: US12240855B2, “Pyrrolopyrazole derivative” (DAIICHI SANKYO COMPANY, LIMITED, priority 2019, dated 2025)

System: PTDSS2-KO HCT116 cell-subcutaneous transplanted model
Experiment: Test Example 4: Antitumor activity on PTDSS2-KO HCT116 cell-subcutaneous transplanted model
Format: in vivo, female BALB/c-nu/nu mice
Conditions: oral
Text: HCT116 cell-subcutaneous transplanted model PTDSS2-KO HCT116 cells were transplanted to a right subcutaneous axillary portion of female BALB/c-nu/nu mice at a proportion of 1×10^7 cells/head, and when the tumor volume reached 100 to 300 mm^3 (estimated tumor volume (major axis×minor axis×minor axis/2)), mice were divided into groups of 6 or 5 mice each such that there was no difference between groups. The female BALB/c-nu/nu mice were purchased from CHARLES RIVER LABORATORIES JAPAN, INC. The compounds of Examples 58, 57, 53, 30, 42, 32, 34, 33, and 31 were orally administered from the day of grouping in the dosing schedule shown in Table 12 (twice daily, 11 successive days (BID×11), or once daily, 13 successive days (QD×13)). The tumor volume was measured until the next day of completion of the administration (test end date). 0.5% methylcellulose (MC) was administered to the vehicle control group as the vehicle.
TGI %=(1−TVt/TVc)×100 • TGI: Tumor growth suppression rate • TVt: Group mean tumor volume of compound administration group on test end date • TVc: Group mean tumor volume of vehicle control group on test end date

[1] = 10 mg/kg, QD × 13, test end date
[2] = 20 mg/kg, QD × 13, test end date
[3] = 40 mg/kg, QD × 13, test end date
[4] = 50 mg/kg, BID × 11, test end date
[5] = 100 mg/kg, BID × 11, test end date

| SMILES | TGI (%) [1] | TGI (%) [2] | TGI (%) [3] | TGI (%) [4] | TGI (%) [5] | TGI (%) (200 mg/kg, BID × 11, test end date) |
| --- | --- | --- | --- | --- | --- | --- |
| CC(F)(F)CN1C(=O)c2[nH]nc(-c3cccc4[nH]c(=O)oc34)c2C1c1ccc(Oc2ccc(OC(F)(F)F)cc2)cc1 (single isomer, unassigned; (-)) [Example 30, (−)-7-[5-(2,2-difluoropropyl)-6-oxo-4-{4-[4-(trifluoromethoxy)phenoxy]phenyl}-1,4,5,6,-tetrahydropyrrolo[3,4-c]pyrazol-3-yl]-1,3-benzoxazol-2-(3H)-one] | 26% | 50% | 83% | – | – | – |
| CC(F)(F)CN1C(=O)c2[nH]nc(-c3cccc4[nH]c(=O)oc34)c2C1c1ccc(Oc2ccc(OC(F)(F)F)c(Cl)c2)cc1 (single isomer, unassigned; (-)) [Example 31, (−)-7-[4-{4-[3-chloro-4-(trifluoromethoxy)phenoxy]phenyl}-5-(2,2-difluoropropyl)-6-oxo-1,4,5,6,-tetrahydropyrrolo[3,4-c]pyrazol-3-yl]-1,3-benzoxazol-2-(3H)-one] | – | – | 88% | – | – | – |
| Cc1cc(Oc2ccc(C3c4c(-c5cccc6[nH]c(=O)oc56)n[nH]c4C(=O)N3CC(C)(F)F)cc2)ccc1OC(F)(F)F (single isomer, unassigned; (-)) [Example 32, (−)-7-[5-(2,2-difluoropropyl)-4-{4-[3-methyl-4-(trifluoromethoxy)phenoxy]phenyl}-6-oxo-1,4,5,6-tetrahydropyrrolo[3,4-c]pyrazol-3-yl]-1,3-benzoxazol-2(3H)-one] | 95% | 98% | 98% | – | – | – |
| CC(F)(F)CN1C(=O)c2[nH]nc(-c3cccc4[nH]c(=O)oc34)c2C1c1ccc(Oc2cc(Cl)cc(OC(F)(F)F)c2)cc1 (single isomer, unassigned; (-)) [Example 34, (−)-7-[4-{4-[3-Chloro-5-(trifluoromethoxy)phenoxy]phenyl}-5-(2,2-difluoropropyl)-6-oxo-1,4,5,6-tetrahydropyrrolo[3,4-c]pyrazol-3-yl]-1,3-benzoxazol-2(3H)-one] | 63% | 87% | 96% | – | – | – |
| CC(F)(F)CN1C(=O)c2[nH]nc(-c3cccc4[nH]c(=O)oc34)c2C1c1cccc(Oc2ccc(F)cc2)c1 (single isomer, unassigned; (-)) [Example 53, (−)-7-{5-(2,2-Difluoropropyl)-4-[3-(4-fluorophenoxy)phenyl]-6-oxo-1,4,5,6-tetrahydropyrrolo[3,4-c]pyrazol-3-yl}-1,3-benzoxazol-2(3H)-one] | – | – | – | 41% | 83% | – |
| CC(F)(F)CN1C(=O)c2[nH]nc(-c3cccc4[nH]c(=O)oc34)c2C1c1ccc(Oc2ccc(Cl)cc2)cc1 (single isomer, unassigned; (-)) [Example 57, (−)-7-{4-[4-(4-Chlorophenoxy)phenyl]-5-(2,2-difluoropropyl)-6-oxo-1,4,5,6-tetrahydropyrrolo[3,4-c]pyrazol-3-yl}-1,3-benzoxazol-2(3H)-one] | – | – | – | 89% | 97% | – |
| CC(F)(F)CN1C(=O)c2[nH]nc(-c3cccc4[nH]c(=O)oc34)c2C1c1ccc(Oc2ccc(Cl)cc2)cc1F (single isomer, unassigned; (-)) [Example 58, (−)-7-{4-[4-(4-Chlorophenoxy)-2-fluorophenyl]-5-(2,2-difluoropropyl)-6-oxo-1,4,5,6-tetrahydropyrrolo[3,4-c]pyrazol-3-yl}-1,3-benzoxazol-2(3H)-one] | – | – | – | – | – | 87% |
